Results as given in PMC3703636 (2013).

Key:
Assay in all cases: gel filtration, radiolabeled GTP
Settings in all cases: reduced relative to wild type
[1] = system: NRAS translational repressor mut (RNA, G4) GGUAGGGUCGGUUCUGGU
[2] = system: c-MYC transcriptional repressor mut (DNA, G4) GGGTAGGAAGGGTAGGA
[3] = system: VEGF IRES mut (RNA, G4) UGAUGAGUGUGAGGAGGA

- binding [1]: weak
- binding [2]: weak
- binding [3]: weak
SMILES: Nc1nc2c(ncn2[C@@H]2O[C@H](COP(=O)(O)OP(=O)(O)OP(=O)(O)O)[C@@H](O)[C@H]2O)c(=O)[nH]1
